Values of other authors, collected in patent publication US11459499B2, “Amidoamine-based gemini surfactant containing ethoxylate units and a method for oil recovery” (King Fahd University of Petroleum and Minerals, priority 2018, dated 2022).
Where two headings read alike, the source gives them in different places.

SMILES | reported CMC (literature (Hoque et al., 2012)) | reported CMC (literature (Lu et al., 2012))
CCCCCCCCCCCC[N+](C)(C)C.[Br-] [DTAB, dodecyltrimethylammonium bromide] | 16.1 mM | 5.0×10^−1 wt. %
CCCCCCCCCCCC[N+](C)(C)CC[N+](C)(C)CCCCCCCCCCCC.[Br-].[Br-] [12-2-12] |  | about 5.5×10^−2 wt. %
